Data reported in patent US9492460B2, “Carbazole compounds useful as bromodomain inhibitors” (Bristol-Myers Squibb Company, priority 2013, dated 2016).

Biological target: T1, bromodomain BRD4 (44-168), BRD4 (333-460), and BRD4 (1-477 or 44-460) (Homo sapiens, UniProt O60885)
T1 construct: BRD4(44-168), BRD4(333-460), BRD4(44-460), BRD4(1-477), O60885-1; fused on or other part: N-terminal BirA biotinylation motif, biotinylated; The TVMV-cleavable His6 tag is removed, except in some BRD4(44-460) runs detected with anti-His terbium cryptate
Assay: Time Resolved Fluorescence Resonance Energy Transfer (TR-FRET) binding assay
Conditions: one of the FRET assays described

Row | Structure (SMILES) | IC50 [nM]
1 | Cc1noc(C)c1-c1cc(C(N)=O)c2c3cc(N4CC(C)(C)COC4=O)ccc3n(Cc3ccccc3)c2c1 [Example 160, 9-benzyl-2-(3,5-dimethyl-4-isoxazolyl)-6-(5,5-dimethyl-2-oxo-1,3-oxazinan-3-yl)-9H-carbazole-4-carboxamide] | < 50
2 | Cc1noc(C)c1-c1cc(C(N)=O)c2c3cc(N4CCOC4=O)ccc3n(Cc3ccccc3)c2c1 [Example 161, 9-benzyl-2-(3,5-dimethyl-4-isoxazolyl)-6-(2-oxo-1,3-oxazolidin-3-yl)-9H-carbazole-4-carboxamide] | < 50
3 | Cc1noc(C)c1-c1cc(C(N)=O)c2c3cc(N4CCOC4=O)ccc3n(Cc3ccc(Cl)cc3)c2c1 [Example 162, 9-(4-chlorobenzyl)-2-(3,5-dimethyl-4-isoxazolyl)-6-(2-oxo-1,3-oxazolidin-3-yl)-9H-carbazole-4-carboxamide] | < 50
4 | Cc1noc(C)c1-c1cc(C(N)=O)c2c3cc(N4CCOC4=O)ccc3n(C(C)c3ccccc3)c2c1 (stereo not shown) [Example 163, 2-(3,5-dimethyl-4-isoxazolyl)-6-(2-oxo-1,3-oxazolidin-3-yl)-9-(1-phenylethyl)-9H-carbazole-4-carboxamide] | < 50
5 | Cc1noc(C)c1-c1cc(C(N)=O)c2c3cc(N4CCOC4=O)ccc3n(Cc3ccc(Cl)c(F)c3)c2c1 [Example 164, 9-(4-chloro-3-fluorobenzyl)-2-(3,5-dimethyl-4-isoxazolyl)-6-(2-oxo-1,3-oxazolidin-3-yl)-9H-carbazole-4-carboxamide] | < 500
6 | CCNC(=O)c1cc(-c2c(C)noc2C)cc2c1c1cc(N3CCCOC3=O)ccc1n2Cc1ccccc1 [Example 165, 9-benzyl-2-(3,5-dimethyl-4-isoxazolyl)-N-ethyl-6-(2-oxo-1,3-oxazinan-3-yl)-9H-carbazole-4-carboxamide] | < 500
7 | CCNC(=O)c1cc(-c2c(C)noc2C)cc2c1c1cc(N3CCCOC3=O)ccc1n2Cc1ccc(Cl)cc1 [Example 166, 9-(4-chlorobenzyl)-2-(3,5-dimethyl-4-isoxazolyl)-N-ethyl-6-(2-oxo-1,3-oxazinan-3-yl)-9H-carbazole-4-carboxamide] | < 7500
8 | CCNC(=O)c1cc(-c2c(C)noc2C)cc2c1c1cc(N3CCCOC3=O)ccc1n2C(C)c1ccccc1 (stereo not shown) [Example 167, 2-(3,5-dimethyl-4-isoxazolyl)-N-ethyl-6-(2-oxo-1,3-oxazinan-3-yl)-(1-phenylethyl)-9H-carbazole-4-carboxamide] | < 50
9 | CNC(=O)c1cc(-c2c(C)noc2C)cc2[nH]c3ccc(N4CCCOC4=O)cc3c12 [Example 168, 2-(3,5-dimethyl-4-isoxazolyl)-N-methyl-6-(2-oxo-1,3-oxazinan-3-yl)-9H-carbazole-4-carboxamide] | < 500
10 | CNC(=O)c1cc(-c2c(C)noc2C)cc2c1c1cc(N3CCCOC3=O)ccc1n2Cc1ccccc1 [Example 169, 9-benzyl-2-(3,5-dimethyl-4-isoxazolyl)-N-methyl-6-(2-oxo-1,3-oxazinan-3-yl)-9H-carbazole-4-carboxamide] | < 50
11 | CNC(=O)c1cc(-c2c(C)noc2C)cc2c1c1cc(N3CCCOC3=O)ccc1n2Cc1ccc(Cl)cc1 [Example 170, 9-(4-chlorobenzyl)-2-(3,5-dimethyl-4-isoxazolyl)-N-methyl-6-(2-oxo-1,3-oxazinan-3-yl)-9H-carbazole-4-carboxamide] | < 50
12 | CNC(=O)c1cc(-c2c(C)noc2C)cc2c1c1cc(N3CCCOC3=O)ccc1n2Cc1ccc(F)cc1 [Example 171, 2-(3,5-dimethyl-4-isoxazolyl)-9-(4-fluorobenzyl)-N-methyl-6-(2-oxo-1,3-oxazinan-3-yl)-9H-carbazole-4-carboxamide] | < 50
13 | CNC(=O)c1cc(-c2c(C)noc2C)cc2c1c1cc(N3CCCOC3=O)ccc1n2Cc1ccc(Cl)c(F)c1 [Example 172, 9-(4-chloro-3-fluorobenzyl)-2-(3,5-dimethyl-4-isoxazolyl)-N-methyl-6-(2-oxo-1,3-oxazinan-3-yl)-9H-carbazole-4-carboxamide] | < 50
14 | CNC(=O)c1cc(-c2c(C)noc2C)cc2c1c1cc(N3CCCOC3=O)ccc1n2C(C)c1ccccc1 (stereo not shown) [Example 173, 2-(3,5-dimethyl-4-isoxazolyl)-N-methyl-6-(2-oxo-1,3-oxazinan-3-yl)-9-(1-phenylethyl)-9H-carbazole-4-carboxamide] | < 7500
15 | Cc1noc(C)c1-c1cc(C(N)=O)c2c3cc(N4CCCS4(=O)=O)ccc3n(Cc3ccc(F)cc3)c2c1 [Example 174, 2-(3,5-dimethyl-4-isoxazolyl)-6-(1,1-dioxido-2-isothiazolidinyl)-9-(4-fluorobenzyl)-9H-carbazole-4-carboxamide] | < 50
16 | Cc1noc(C)c1-c1cc(C(N)=O)c2c3cc(N4CCCCS4(=O)=O)ccc3n(Cc3ccc(F)cc3)c2c1 [Example 175, 2-(3,5-dimethyl-4-isoxazolyl)-6-(1,1-dioxido-1,2-thiazinan-2-yl)-9-(4-fluorobenzyl)-9H-carbazole-4-carboxamide] | < 50
17 | COc1ccc2c(c1)c1c(C(N)=O)cc(-c3c(C)noc3C)cc1n2C(C)c1ccccc1 (stereo not shown) [Example 176, 2-(3,5-dimethyl-4-isoxazolyl)-6-methoxy-9-(1-phenylethyl)-9H-carbazole-4-carboxamide] | < 50
18 | COc1ccc2c(c1)c1c(C(N)=O)cc(-c3c(C)noc3C)cc1n2Cc1ccccc1 [Example 177, 9-benzyl-2-(3,5-dimethyl-4-isoxazolyl)-6-methoxy-9H-carbazole-4-carboxamide] | < 50
19 | Cc1noc(C)c1-c1cc(C(N)=O)c2c3cc(O)ccc3n(Cc3ccccc3)c2c1 [Example 178, 9-benzyl-2-(3,5-dimethyl-4-isoxazolyl)-6-hydroxy-9H-carbazole-4-carboxamide] | < 50
20 | Cc1noc(C)c1-c1cc(C(N)=O)c2c3cc(S(C)(=O)=O)ccc3n(Cc3ccccc3)c2c1 [Example 181, 9-benzyl-2-(3,5-dimethyl-4-isoxazolyl)-6-(methylsulfonyl)-9H-carbazole-4-carboxamide] | < 50
21 | COC(=O)c1ccc2c3c(C#N)cc(-c4c(C)noc4C)cc3n(Cc3ccccc3)c2c1 [Example 182, Methyl 9-benzyl-5-cyano-7-(3,5-dimethyl-4-isoxazolyl)-9H-carbazole-2-carboxylate] | < 7500
22 | COC(=O)c1ccc2c3c(C(N)=O)cc(-c4c(C)noc4C)cc3n(Cc3ccccc3)c2c1 [Example 183, Methyl 9-benzyl-5-carbamoyl-7-(3,5-dimethyl-4-isoxazolyl)-9H-carbazole-2-carboxylate] | < 50
23 | Cc1noc(C)c1-c1cc(C#N)c2c3ccc(C(C)(C)O)cc3n(Cc3ccccc3)c2c1 [Example 184, 9-benzyl-2-(3,5-dimethyl-4-isoxazolyl)-7-(1-hydroxy-1-methylethyl)-9H-carbazole-4-carbonitrile] | < 500
24 | Cc1noc(C)c1-c1cc(C#N)c2c3ccc(C(=O)O)cc3n(Cc3ccccc3)c2c1 [Example 186, 9-Benzyl-5-cyano-7-(3,5-dimethyl-4-isoxazolyl)-9H-carbazole-2-carboxylic acid] | < 50
25 | Cc1noc(C)c1-c1cc(C#N)c2c3ccc(C(=O)N4CCOCC4)cc3n(Cc3ccccc3)c2c1 [Example 187, 9-Benzyl-2-(3,5-dimethyl-4-isoxazolyl)-7-(morpholine-4-carbonyl)-9H-carbazole-4-carbonitrile] | < 500
